Measured values reported in US8168178B2, “Methods and compositions for regulating lymphocyte activity” (Curis, Inc., priority 1999, dated 2012).

Tests used:
[1] = tested on: thymocytes in Shh−/− FTOC; test: FTOC of E14.5 Shh−/− thymus explants treated with recombinant Shh; type: cell-based, mouse
Experimental: As thymocyte cellularity and differentiation were reduced in Shh−/− thymi, we examined if we could promote thymocyte development in Shh−/− thymus explants by treatment with recombinant Shh. We have previously shown that treatment of wildtype FTOC with between 0.3 to 1 μg/ml recombinant Shh arrested thymocyte development at the DN stage (Outram et al., 2000). […] We treated Shh−/− thymus explants for 7 days with 0.5 or 0.0005 μg/ml recombinant Shh. Treatment with 0.5 μg/ml Shh inhibited differentiation from DN to DP cells. In a typical experiment, 5.2% of thymocytes were DP in the treated cultures compared with 36.6% in control cultures (FIG. 12, D and E). Thus, Shh−/− thymocytes were able to respond to a Shh signal in the same way as wildtype thymocytes, despite the fact that they had not been exposed to Shh in vivo. Although this high dose of Shh arrested thymocyte differentiation, some activation of the Hh signalling pathway is clearly necessary for normal thymocyte differentiation. We therefore treated Shh−/− explants with a 1000-fold lower dose of recombinant Shh (0.0005 μg/ml). Treatment of Shh−/− thymus explants with low-dose Shh promoted differentiation to DP cell: After 7 days in culture Shh−/− thymus explants treated with 0.0005 μg/ml Shh contained more DP thymocytes than untreated Shh−/− thymus explants −41.6% DP thymocytes and 32.7% DN thymocytes in treated Shh−/− thymus explants, compared with 36.6% DP cells and 43.1% DN cells in untreated control Shh−/− thymus cultures (FIG. 9b).
We repeated these experiments by treating individual Shh−/− thymus lobes with recombinant Shh and comparing them to untreated cultures of the other lobe from the same embryo (summarized in FIG. 12F, cell production in each culture condition compared with that in the control lobe are shown on a log scale).
(§1) Thymocyte suspensions were prepared by crushing thymi between two pieces of ground glass. Cells were stained using combinations of the following directly conjugated antibodies obtained from BD Pharmingen: anti-CD44FITC, anti-CD44Cychrome, anti-CD25 PE, anti-CD25 FITC, anti-CD4FITC, anti-CD8 Cychrome, anti-CD4PE, anti-CD4Cychrome, anti-CD8FITC, anti-CD45.1PE, anti-CD45.2FITC, anti-CD3PE and anti-TCR-βPE. Cell suspensions were stained with the antibodies for 30 minutes on ice in 50 μl of Dulbeccos modified medium (Life Technologies), supplemented with 5% FCS and 0.1% sodium azide. Cells were washed in this medium between incubations and prior to analysis on the FACScan (Becton Dickinson). Events were collected in list mode using CellQuest software and data analysed using CellQuest Pro software. Live cells were gated according to their FSC and SSC profiles. Data are representative of at least three experiments.
(§2) Fetal thymi were dissected from E14.5 Shh +/+, +/− and −/− mice and cultured on 8 μm pore size Millipore filters (Millipore) in AIM-V serum free medium (Life Technologies). Thymi were cultured at 37° C. and 5% CO2 for 3 or 6 days or cultured in the presence of 0.5 μg/ml or 0.0005 μg/ml modified human Shh (Curis) for 7 days.

[2] = tested on: thymocytes in wild-type FTOC; details: cited from earlier work
[3] = tested on: thymocytes in wild-type FTOC; test: Fetal thymic organ culture (FTOC) of wild-type thymus, flow cytometry of thymocyte subsets; type: cell-based, mouse
Experimental: Utilizing a fetal thymic organ culture (FTOC), the effects of Shh on T-cell maturation was determined. Briefly, immature thymocytes (CD4^−/CD8^− [DN]) were isolated from E14 thymus. The cells were culture for about 7 days, and the level of mature thymocytes, e.g., CD4^+/CD8^+ [DP], was assessed. In certain cultures, octyl-modified Shh was added to the culture; in other cultures, the anti-hedgehog 5E1 antibody was added.
We have previously shown that treatment of wild-type FTOC with between 0.3 and 1 μg/ml recombinant Shh arrested thymocyte development at the DN stage (Outram et al., Immunity 13: 187, 2000). This arrest was not due to nonspecific toxicity of the recombinant Shh, but was a genuine biological effect, as it could be neutralized by addition of anti-Hh mAb. […] Therefore, we decided to determine whether treatment of FTOC with lower concentrations of Shh could promote thymocyte development. We treated wild-type FTOC for 5 days with 0.0005 μg/ml Shh or 0.5 μg/ml Shh. In a typical experiment, treatment with 0.5 μg/ml Shh arrested thymocyte development at the DN stage, and <1% of thymocytes were DP compared with 7.6% in the control cultures, whereas treatment with 0.0005 μg/ml Shh promoted thymocyte development, and 15.2% of cells were DP (FIG. 12A). […] Treatment with 0.5 μg/ml inhibited both the production of DP cells and the overall cell recovery, and this inhibition was neutralized by addition of anti-Hh mAb, confirming that the arrest in thymocyte development was not the result of non-specific toxicity of the reagent (FIG. 12B). Thus, in wild-type FTOC, treatment with different concentrations of recombinant Shh can produce distinct outcomes at the transition from DN to DP cells; high-dose Shh treatment arrests thymocyte development, but treatment with a 1000-fold lower dose promotes the production of DP cells (FIG. 12, A-C).
as §1, §2

Which DN thymocytes ([1]; Shh−/− explants, 7 days, 0.0005 μg/ml Shh, untreated 43.1%) does the source give for “Shh: hydrophobically modified human Shh signalling protein, N-octyl-malemide coupled to amino-terminal cysteine of bacterially derived N-shh (Curis)” here?
Its DN thymocytes is 32.7%.

What about the “thymocytes that were DP” value ([1]; Shh−/− explants, 7 days, 0.5 μg/ml Shh, control cultures 36.6%) of the same substance?
Its value is 5.2%.

What about the “production of DP cells” value ([1]; Shh−/− explants, low dose treatment (0.0005 μg/ml), overall) of the same substance?
Its value is “more than doubled”.

What about the “cell number compared to control” value ([1]; Shh−/− explants, low-dose Shh (0.0005 μg/ml)) of the same substance?
Its value is “increased”.

And the “differentiation from DN to DP cells” value ([1]; Shh−/− thymus explants, 0.5 μg/ml Shh)?
Its value is “inhibited”.

And the “overall cell production and differentiation to DP cell” value ([1]; individual Shh−/− thymus lobes, high dose Shh)?
The value was “inhibited”.

And the “thymocyte development at the DN3 stage, after TCRβ chain gene rearrangement” value ([2]; in vitro treatment of FTOC (Outram et al. 2000))?
Its value is “arrested”.

And the “thymocyte development at the DN stage” value ([2]; wild-type FTOC, between 0.3 and 1 μg/ml recombinant Shh (Outram et al. 2000))?
The value was “arrested”.

And the “percentage of cells with markers indicative of immature thymocytes” value ([3]; E14 thymus, about 7 days culture, high dose of Shh 0.5 μg/ml)?
The value was “increase”.

What about the “Shh concentration at which Hedgehog functions as an immunosuppressant” value ([3]; FTOC, FIG. 12B) of the same substance?
Its value is “more than 0.1 μg/ml”.

And the “promotion of thymocyte development” value ([3]; wild-type FTOC, 0.00005 μg/ml)?
The value was “lost”.

And the “cells that were DP” value ([3]; wild-type FTOC, 5 days, 0.0005 μg/ml Shh, control cultures 7.6%)?
Its value is 15.2%.

What about the “thymocytes that were DP” value ([3]; wild-type FTOC, 5 days, 0.5 μg/ml Shh, control cultures 7.6%) of the same substance?
The value was under 1%.
